The results in this text go back to patent US20230085307A1, “PYRIDAZINONE COMPOUND AND HERBICIDE” (NISSAN CHEMICAL CORPORATION, priority 2019, published 2023).

Structures are written as SMILES.

Test [1] relates to late watergrass. Nature of the test: Test Example 1: herbicidal activity, application before weed generation under submerged conditions (Table 16, symbol A). The class given is in vivo, late watergrass (Echinochloa oryzicola). To be noted: 320 g/ha applied herbicide. The method, boiled down: (§1)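 Submerged Wagner pots (alluvial soil, 4 cm water) sown with weed seeds and planted with 2.5-leaf rice seedlings; emulsifiable concentrate diluted in water applied to water surface on sowing day. Held in greenhouse at 25-30 °C; injury scored 0-5 by herbicidal rate after three weeks.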

The subject of test [2] is Japanese bulrush. Briefly: Test Example 1: herbicidal activity, application before weed generation under submerged conditions (Table 16, symbol B). The class given is in vivo, Japanese bulrush (Schoenoplectus juncoides). To be noted: 320 g/ha applied herbicide. The method, boiled down:
as §1

Test [3] deals with oval-leafed pondweed. Briefly: Test Example 1: herbicidal activity, application before weed generation under submerged conditions (Table 16, symbol C). As to conditions: 320 g/ha applied herbicide. In kind it is in vivo, oval-leafed pondweed (Monochoria vaginalis). Summed up: as §1
In test [4] the test system is barnyard grass. Nature of the test: Test Example 3: herbicidal effect by foliage application, Wagner pot (Table 18, symbol H). In kind it is in vivo, barnyard grass (Echinochloa crus-galli). As to conditions: amount of applied herbicide 320 g/ha. The method, boiled down: (§2)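 Plants were sown in alluvial soil held under 0.1–0.5 cm standing water and grown 14 days in a greenhouse at 25–30 °C. An emulsifiable formulation, water-diluted to the set dose, was then sprayed onto the foliage, and effects were scored three weeks later using previously defined criteria.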

Test [5] concerns Chinese sprangletop. Nature of the test: Test Example 3: herbicidal effect by foliage application, Wagner pot (Table 18, symbol D). In kind it is in vivo, chinese sprangletop (Leptochloa chinensis). To be noted: amount of applied herbicide 320 g/ha. Summed up: as §2
The subject of test [6] is rice flat sedge. Nature of the test: Test Example 3: herbicidal effect by foliage application, Wagner pot (Table 18, symbol E). The class given is in vivo, rice flat sedge (Cyperus iria). To be noted: amount of applied herbicide 320 g/ha. The method, boiled down:
as §2

Test [7] concerns southern crabgrass. Nature of the test: Test Example 4: herbicidal effect by soil treatment (Table 19, symbol F). In kind it is in vivo, southern crabgrass (Digitaria ciliaris). As to conditions: amount of applied herbicide 320 g/ha. The method, boiled down:
(§3)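 Emulsion of test compound, water-diluted to predetermined amount, sprayed on soil after sowing (seed depth ~1.5 cm, sterilized diluvial soil). Greenhouse, 25–30° C. Effect graded at three weeks post-spray.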

Test [8] relates to green foxtail. Nature of the test: Test Example 4: herbicidal effect by soil treatment (Table 19, symbol G). In kind it is in vivo, green foxtail (Setaria viridis). As to conditions: amount of applied herbicide 320 g/ha. Summed up: as §3
In test [9] the test system is barnyard grass. Briefly: Test Example 4: herbicidal effect by soil treatment (Table 19, symbol H). In kind it is in vivo, barnyard grass (Echinochloa crus-galli). To be noted: amount of applied herbicide 320 g/ha. Summed up:
as §3

Test [10] relates to wild oat. Briefly: Test Example 4: herbicidal effect by soil treatment (Table 19, symbol I). In kind it is in vivo, wild oat (Avena fatua). As to conditions: amount of applied herbicide 320 g/ha. Summed up: as §3
Test [11] concerns blackgrass. Briefly: Test Example 4: herbicidal effect by soil treatment (Table 19, symbol J). In kind it is in vivo, blackgrass (Alopecurus myosuroides). To be noted: amount of applied herbicide 320 g/ha. The method, boiled down: as §3
Test [12] relates to Italian ryegrass. Briefly: Test Example 4: herbicidal effect by soil treatment (Table 19, symbol K). The class given is in vivo, Italian ryegrass (Lolium multiflorum). As to conditions: amount of applied herbicide 320 g/ha. Summed up: as §3
In test [13] the test system is windgrass. Nature of the test: Test Example 4: herbicidal effect by soil treatment (Table 19, symbol L). In kind it is in vivo, windgrass (Apera spica-venti). As to conditions: amount of applied herbicide 320 g/ha. The method, boiled down:
as §3

For test [14], the system named is velvetleaf. Nature of the test: Test Example 4: herbicidal effect by soil treatment (Table 19, symbol M). In kind it is in vivo, velvetleaf (Abutilon theophrasti). As to conditions: amount of applied herbicide 320 g/ha. Summed up: as §3
The subject of test [15] is redroot pigweed. Nature of the test: Test Example 4: herbicidal effect by soil treatment (Table 19, symbol N). To be noted: amount of applied herbicide 320 g/ha. The class given is in vivo, redroot pigweed (Amaranthus retroflexus). Summed up:
as §3

Test [16] relates to lambsquarters. Nature of the test: Test Example 4: herbicidal effect by soil treatment (Table 19, symbol O). The class given is in vivo, lambsquarters (Chenopodium album). As to conditions: amount of applied herbicide 320 g/ha. Summed up: as §3
The subject of test [17] is chickweed. Nature of the test: Test Example 4: herbicidal effect by soil treatment (Table 19, symbol P). To be noted: amount of applied herbicide 320 g/ha. In kind it is in vivo, common chickweed (Stellaria media). Summed up: as §3
In test [18] the test system is persian speedwell. Nature of the test: Test Example 4: herbicidal effect by soil treatment (Table 19, symbol R). The class given is in vivo, Persian speedwell (Veronica persica). To be noted: amount of applied herbicide 320 g/ha. The method, boiled down:
as §3

Take `CCCC(=O)Oc1c(C)nn(C)c(=O)c1-c1c(-c2ccc(Cl)cc2OC)sc2ccc(F)cc12` [2-369]: the “Herbicidal effect on A: late watergrass (grade 0-5)” value in [1] is given as 0 (Herbicidal rate of 5% or less (almost no effect)). For the same compound, the “Herbicidal effect on B: Japanese bulrush (grade 0-5)” value (“Herbicidal effect on B” for short) in test [2] is 0 (Herbicidal rate of 5% or less (almost no effect)). In addition, the “Herbicidal effect on C: oval-leafed pondweed (grade 0-5)” value (shortened to “Herbicidal effect on C”) in test [3] was 2 (Herbicidal rate of 20% or more and less than 40%). Also, the “herbicidal effect on H: barnyard grass” value in test [4] is 4 (Herbicidal rate of 70% or more and less than 90%). Further, the “herbicidal effect on D: Chinese sprangletop” value (“herbicidal effect on D” below) in test [5] is given as 5 (Herbicidal rate of 90% or more (almost completely withered)). In addition, the “herbicidal effect on E: rice flat sedge” value in [6] was 4 (Herbicidal rate of 70% or more and less than 90%). In addition, the “herbicidal effect, F: southern crabgrass” value in [7] is given as 0 (Herbicidal rate of 5% or less (almost no effect)). Moreover, the “herbicidal effect, G: green foxtail” value in [8] is on record as 0 (Herbicidal rate of 5% or less (almost no effect)). Also, the “herbicidal effect, H: barnyard grass” value in test [9] was 0 (Herbicidal rate of 5% or less (almost no effect)). In addition, the “herbicidal effect, I: wild oat” value in test [10] was 0 (Herbicidal rate of 5% or less (almost no effect)). The “herbicidal effect, J: blackgrass” value in test [11] is listed as 0 (Herbicidal rate of 5% or less (almost no effect)). Also, the “herbicidal effect, K: Italian ryegrass” value in [12] was 0 (Herbicidal rate of 5% or less (almost no effect)). In addition, the “herbicidal effect, L: windgrass” value in test [13] is 3 (Herbicidal rate of 40% or more and less than 70%). For the same compound, the “herbicidal effect, M: velvetleaf” value in test [14] is 0 (Herbicidal rate of 5% or less (almost no effect)). Moreover, the “herbicidal effect, N: redroot pigweed” value in test [15] is 0 (Herbicidal rate of 5% or less (almost no effect)). The “herbicidal effect, O: lambsquarters” value in test [16] was 0 (Herbicidal rate of 5% or less (almost no effect)). The “herbicidal effect, P: chickweed” value in test [17] is reported as 0 (Herbicidal rate of 5% or less (almost no effect)). For the same compound, the “herbicidal effect, R: persian speedwell” value in [18] was 0 (Herbicidal rate of 5% or less (almost no effect)).
As to `Cc1nn(C)c(=O)c(-c2c(-c3ccc(OC(F)F)cc3)sc3ccc(Cl)cc23)c1O` [2-374], the “Herbicidal effect on A: late watergrass (grade 0-5)” value in test [1] is 3 (Herbicidal rate of 40% or more and less than 70%). Besides, in test [2], the “Herbicidal effect on B” value is given as 0 (Herbicidal rate of 5% or less (almost no effect)). Moreover, the “Herbicidal effect on C” value in [3] is on record as 0 (Herbicidal rate of 5% or less (almost no effect)). The “herbicidal effect on H: barnyard grass” value in [4] was 5 (Herbicidal rate of 90% or more (almost completely withered)). Besides, the “herbicidal effect on D” value in [5] is 4 (Herbicidal rate of 70% or more and less than 90%). Also, the “herbicidal effect on E: rice flat sedge” value in test [6] is 5 (Herbicidal rate of 90% or more (almost completely withered)). The “herbicidal effect, F: southern crabgrass” value in [7] was 4 (Herbicidal rate of 70% or more and less than 90%). Also, the “herbicidal effect, G: green foxtail” value in [8] is 1 (Herbicidal rate of 5% or more and less than 20%). Further, the “herbicidal effect, H: barnyard grass” value in [9] was 4 (Herbicidal rate of 70% or more and less than 90%). Also, the “herbicidal effect, I: wild oat” value in [10] is 0 (Herbicidal rate of 5% or less (almost no effect)). The “herbicidal effect, J: blackgrass” value in test [11] is 3 (Herbicidal rate of 40% or more and less than 70%). The “herbicidal effect, K: Italian ryegrass” value in test [12] was 4 (Herbicidal rate of 70% or more and less than 90%). Moreover, the “herbicidal effect, L: windgrass” value in [13] is reported as 5 (Herbicidal rate of 90% or more (almost completely withered)). Also, the “herbicidal effect, M: velvetleaf” value in test [14] was 3 (Herbicidal rate of 40% or more and less than 70%). Further, the “herbicidal effect, N: redroot pigweed” value in test [15] is 4 (Herbicidal rate of 70% or more and less than 90%). The “herbicidal effect, O: lambsquarters” value in test [16] is reported as 5 (Herbicidal rate of 90% or more (almost completely withered)). Also, the “herbicidal effect, P: chickweed” value in test [17] was 3 (Herbicidal rate of 40% or more and less than 70%). The “herbicidal effect, R: persian speedwell” value in test [18] was 5 (Herbicidal rate of 90% or more (almost completely withered)).
For the compound `CCCC(=O)Oc1c(C)nn(C)c(=O)c1-c1c(-c2cnccc2Cl)sc2ccc(F)cc12` [2-386], in test [1], the “Herbicidal effect on A: late watergrass (grade 0-5)” value was 2 (Herbicidal rate of 20% or more and less than 40%). Further, the “Herbicidal effect on B” value in test [2] is on record as 0 (Herbicidal rate of 5% or less (almost no effect)). Also, in [3], the “Herbicidal effect on C” value was 0 (Herbicidal rate of 5% or less (almost no effect)). The “herbicidal effect on H: barnyard grass” value in test [4] is recorded as 5 (Herbicidal rate of 90% or more (almost completely withered)). Moreover, the “herbicidal effect on D” value in test [5] was 4 (Herbicidal rate of 70% or more and less than 90%). The “herbicidal effect on E: rice flat sedge” value in test [6] is 3 (Herbicidal rate of 40% or more and less than 70%). The “herbicidal effect, F: southern crabgrass” value in [7] was 4 (Herbicidal rate of 70% or more and less than 90%). Further, in test [8], the “herbicidal effect, G: green foxtail” value was 3 (Herbicidal rate of 40% or more and less than 70%). In test [9], the “herbicidal effect, H: barnyard grass” value is 4 (Herbicidal rate of 70% or more and less than 90%). Moreover, in test [10], the “herbicidal effect, I: wild oat” value is 1 (Herbicidal rate of 5% or more and less than 20%). The “herbicidal effect, J: blackgrass” value in [11] is listed as 0 (Herbicidal rate of 5% or less (almost no effect)). For the same compound, in test [12], the “herbicidal effect, K: Italian ryegrass” value was 4 (Herbicidal rate of 70% or more and less than 90%). Besides, the “herbicidal effect, L: windgrass” value in [13] is 2 (Herbicidal rate of 20% or more and less than 40%). Moreover, the “herbicidal effect, M: velvetleaf” value in test [14] was 1 (Herbicidal rate of 5% or more and less than 20%). Further, the “herbicidal effect, N: redroot pigweed” value in test [15] was 4 (Herbicidal rate of 70% or more and less than 90%). For the same compound, the “herbicidal effect, O: lambsquarters” value in test [16] was 4 (Herbicidal rate of 70% or more and less than 90%). In addition, in test [17], the “herbicidal effect, P: chickweed” value was 5 (Herbicidal rate of 90% or more (almost completely withered)). Further, in test [18], the “herbicidal effect, R: persian speedwell” value is listed as 5 (Herbicidal rate of 90% or more (almost completely withered)).
